{
  "source": "patent US12195424B2",
  "about": "“Antibiotic compounds” (The General Hospital Corporation, priority 2017, dated 2025)",
  "key": {"[1]": {"test_system": "human erythrocytes", "assay": "Human blood hemolysis", "assay_type": "cell-based", "protocol": "Human blood hemolysis. Hemolytic activity of retinoids on human erythrocytes was evaluated using a previously described method with modifications. 10% human erythrocytes were purchased from Rockland Immunochemicals (Limerick, PA, USA). The erythrocytes were diluted to 4% with PBS, and 100 μl was added to 100 μl of two-fold serial dilutions of compounds in PBS, 0.2% DMSO (negative control), or 2% Triton-X 100 (positive control) in a 96-well plate. The plate was incubated at 37° C. for 1 h and then centrifuged at 500×g for 5 min. 100 μl of the supernatant was transferred to a fresh 96-well plate and absorbance of supernatants was measured at 540 nm. Percent hemolysis was calculated using the following equation: (A540 nm of compound treated sample−A540 nm of 0.1% DMSO treated sample)/(A540 nm of 1% Triton X-100 treated sample−A540 nm of 0.1% DMSO treated sample)×100. HC50 (concentration of compound causing 50% hemolysis) was determined using SigmaPlot 10.0 (Systat Software Inc., San Jose, CA, USA)."}, "[2]": {"assay": "Cytotoxicity (WST-1) in a panel of human cell lines", "assay_type": "cell-based", "conditions": "panel of human cell lines, serum-free media, 24 h; read-out: LC50", "protocol": "(§1) Cytotoxicity. Cryopreserved rat and human primary hepatocytes were purchased from the Cell Resource Core at Massachusetts General Hospital (Boston, MA, USA). The hepatocytes were cultured in a collagen sandwiched configuration in 24-well plates, as described previously. Briefly, 4×10^5 live cells were seeded in 24-well plates coated with rat tail collagen type I. Plates were incubated in a humidified 5% CO2 incubator at 37° C. for 4 h to allow cells to attach to the collagen gel. […] The cell cultures were incubated in a humidified 5% CO2 incubator at 37° C.\n(§2) For cytotoxicity tests, HepG2, RPTEC, and NHEK were cultured at 70-80% confluence in tissue culture treated 96-well plates in a volume of 100 μl/well corresponding culture media. To test cytotoxicity in the absence of serum, all cells were washed twice with PBS and then once with the serum-free corresponding culture media. […] WST-1 reduction was measured at 450 nm. The percent fluorescence relative to that of the no-treatment control was calculated. The assay was done in triplicate."}, "[3]": {"test_system": "panel of human cell lines", "assay": "Cytotoxicity (WST-1) in a panel of human cell lines", "assay_type": "cell-based", "conditions": "compared with CD437, in words", "protocol": "as §1, §2"}, "[4]": {"assay": "Cytotoxicity (WST-1) in HepG2 cells", "assay_type": "cell-based, human", "conditions": "human; HepG2 cells, serum-free media, 24 h; read-out: LC50", "source_text": "(§3) Human hepatoma, HepG2 (ATCC HB-8065) cells were maintained in DMEM containing 10% fetal bovine serum and antibiotics penicillin—streptomycin (100 units/ml). Normal human primary renal proximal tubular epithelial cells (RPTEC, Lonza catalog #CC-2553, Walkersville, MD, USA) and adult normal human epidermal keratinocytes (NHEK, Lonza catalog #192627) were maintained in renal cell growth media with growth supplements (REGM, Lonza catalog #CC-3190) and in keratinocyte growth media 2 with growth supplements (KGM-2, Lonza catalog #CC-3107), respectively in a humidified 5% CO2 incubator at 37° C.\n(§4) For cytotoxicity tests, HepG2, RPTEC, and NHEK were cultured at 70-80% confluence in tissue culture treated 96-well plates in a volume of 100 μl/well corresponding culture media. To test cytotoxicity in the absence of serum, all cells were washed twice with PBS and then once with the serum-free corresponding culture media. The cells were then treated with a range of concentrations of retinoids in the serum-free culture media for 24 h. For the last 4 h of the 24 h period, 50 μl and 10 μl of WST-1 (Roche, Mannheim, Germany) were added in each well of the 24-well and the 96-well plates, respectively. WST-1 reduction was measured at 450 nm. The percent fluorescence relative to that of the no-treatment control was calculated. The assay was done in triplicate."}, "[5]": {"test_system": "human hepatoma HepG2 cells", "assay": "Cytotoxicity (WST-1) in HepG2 cells", "assay_type": "cell-based", "conditions": "compared with CD437, in words", "source_text": "as §3, §4"}, "[6]": {"assay": "Pharmacokinetic analysis", "assay_type": "in vivo, mice", "conditions": "for half-life: 20 mg/kg", "protocol": "Pharmacokinetic analysis. Pharmacokinetic experiments were conducted by SAI Life Sciences Ltd. (Pune, India) in accordance with guidelines provided by the Committee for the Purpose of Control and Supervision of Experiments on Animals (CPCSEA). The Institutional Animal Ethics Committee (IAEC) approved the experimental protocol. In brief, healthy female CD1 mice (6 weeks old) weighing between 20 to 25 g were procured from Hylasco (Hyderabad, India). Analog 2 was dissolved in a 1:1 solution of Kolliphor EL (Sigma-Aldrich, St Louis, MO, USA) and ethanol and then diluted 1:10 in saline to a final concentration of 2 mg/ml. Groups of mice (n=3) were treated with 20 mg/kg Analog 2 (i.p.). Blood samples were collected as terminal a bleed under light isoflurane anesthesia through a cardiac puncture such that samples were obtained at pre-dose, 0.08, 0.25, 0.5, 1, 2, 4, 8 & 24 h. Immediately after collection, plasma was harvested by centrifugation and stored at −70° C. until analysis. All samples were processed for analysis by protein precipitation using acetonitrile and analyzed with fit-for-purpose LC/MS/MS method (LLOQ=4.90 ng/mL for plasma). Pharmacokinetic parameters were calculated using the non-compartmental analysis tool of Phoenix WinNonlin (Version 6.3). No statistical methods were used to predetermine samples size. The experiments were not randomized, and investigators were not blinded to allocation during experiments and outcome assessment. Outliers were determined based on Grubb's test using GraphPad Prism 7 (GraphPad Software, La Jolla, CA, USA)."}, "[7]": {"test_system": "Cutibacterium (Propionibacterium) acnes", "assay": "Growth inhibition / MIC against P. acnes", "assay_type": "cell-based", "conditions": "in words (FIG. 11)", "protocol": "Minimal inhibitory concentration (MIC) assay. The MICs of antibiotics were determined by the standard micro-dilution method recommended by the Clinical and Laboratory Standards Institute. The assay was conducted in triplicate.\nMore specifically, uptake of SYTOX Green by Cutibacterium (Propionibacterium) acnes cells treated with retinoids CD437 and Analog 2 increased, indicating higher permeability (FIG. 12; individual data points (n=3 biologically independent samples) and means are shown)."}, "[8]": {"test_system": "Cutibacterium (Propionibacterium) acnes", "assay": "Morphology of treated P. acnes bacteria", "assay_type": "cell-based", "conditions": "in words (FIG. 13)"}},
  "note": "Where two headings read alike, the source gives them in different places.",
  "data": [
    {"smiles": "OCc1ccc2cc(-c3ccc(O)c(C45CC6CC(CC(C6)C4)C5)c3)ccc2c1", "note": "[Analog 2, 2-(adamantan-1-yl)-4-(6-(hydroxymethyl)naphthalen-2-yl)phenol]", "values": [
      {"measurement": "hemolytic activity", "setting": "[1]; compared with CD437, in words", "value": "significantly reduced"},
      {"measurement": "HC50", "setting": "[1]; human erythrocytes, 1 h", "value": "> 32", "unit": "µg/mL"},
      {"measurement": "CC50 at 24 h", "setting": "[2]", "value": "≥ 31", "unit": "µg/mL"},
      {"measurement": "cytotoxicity", "setting": "[3]", "value": "significantly reduced"},
      {"measurement": "CC50 at 24 h", "setting": "[4]", "value": "> 32", "unit": "µg/mL"},
      {"measurement": "anticancer activity", "setting": "[5]", "value": "significantly reduced"},
      {"measurement": "AUC(0-inf)", "setting": "[6]; female, CD1, mouse, ip, mice, single injection 20 mg/kg i.p., plasma, read-out: AUCinf (area under the curve to infinite)", "value": 16500, "unit": "ng·h/mL"},
      {"measurement": "AUC(0-t)", "setting": "[6]; female, CD1, mouse, ip, mice, single injection 20 mg/kg i.p., plasma, read-out: AUClast (area under the curve to last time point)", "value": 16400, "unit": "ng·h/mL"},
      {"measurement": "Cmax", "setting": "[6]; female, CD1, mouse, ip, mice, single injection 20 mg/kg i.p., plasma, read-out: Cmax (maximum concentration observed)", "value": 16100, "unit": "ng/mL"},
      {"measurement": "Tmax", "setting": "[6]; female, CD1, mouse, ip, mice, single injection 20 mg/kg i.p., plasma, read-out: Tmax (the time taken to reach the maximum concentration)", "value": 0.5, "unit": "h"},
      {"measurement": "half-life", "setting": "[6]; female, CD1, mouse, plasma, ip, intraperitoneal single dose of 20 mg/kg, as stated in Example 3, read-out: elimination half-life (converted)", "value": 4.5, "unit": "h"},
      {"measurement": "half-life", "setting": "[6]; female, CD1, mouse, plasma, ip, mice, single injection 20 mg/kg i.p., plasma, read-out: T1/2 (Half-life) (converted)", "value": 4.49, "unit": "h"},
      {"measurement": "maximum plasma concentration", "setting": "[6]; intraperitoneal single dose of 20 mg/kg, as stated in Example 3", "value": "~10", "unit": "µg/mL"},
      {"measurement": "CL (clearance)", "setting": "[6]; mice, single injection 20 mg/kg i.p., plasma", "value": 20.16, "unit": "mL/min/kg"},
      {"measurement": "growth inhibition", "setting": "[7]", "value": "inhibit the growth"},
      {"measurement": "morphology of bacteria", "setting": "[8]", "value": "altered and elongated"}
    ]}
  ]
}
